What was measured:
Maus = conditions: cited from earlier work
[1] = test system: Chenopodium album ("CHEAL"); experiment: Field trial, Swiss Mittelland, percent weed control from plant counts (Tabelle II); format: in vivo, Chenopodium album L.; conditions: four weeks after treatment
Source text: Die Tabelle II zeigt Resultate von Versuchen, die im Freien, nämlich im schweizerischen Mittelland auf mittelschwerem sandigem Lehmboden durchgeführt wurden. Die hier wiedergegebenen Werte sind Prozent-Zahlen, die errechnet wurden aufgrund der Formel [formula] wobei AK die Individuenzahl der jeweiligen Unkraut-Art pro Flächeneinheit der unbehandelten Kontrollparzelle und AB die entsprechende Individuenzahl pro Flächeneinheit der jeweiligen behandelten Partelle bedeutet. Die Ermittlung der Wirkung erfolgte vier Wochen nach Behandlung.

[2] = test system: 7 repräsentative Unkraut- arten; experiment: Greenhouse pot test, spray directly after sowing, EWRC rating, weeds (Tabelle I); format: in vivo; conditions: EWRC scale, 1 = völlige Abtötung, 9 = völlige Wirkungslosigkeit
Source text: (§1) Der Tabelle 1 liegen orientierende Versuche zugrunde, welche im klimatisierten Gewächshaus durchgeführt wurden, wobei 7 repräsentative Unkraut- arten und als Beispiel einer Kulturpflanze Raps benützt wurden. Unmittelbar nach dem Beschicken der Kunststofftöpfe mit dem Saatgut wurde (abge-
(§2) sehen von der unbehandelt bleibenden Kontrollserie) je eine Serie behandelt durch Aufsprühen einer wässrigen Suspension bzw. Emulsion, welche als Herbizid entweder nur den Aktivstoff I oder II in unterschiedlicher Menge oder beide Stoffe kombiniert in unterschiedlichen Mengen und Mengenverhältnissen enthielt. Die eingesetzten Aktivstoff-Mengen wurden umgerechnet auf die Aufwändmengen in Gramm Wirkstoff pro Hektar. Die Effekte wurden innert vier Wochen mehrmals begutachtet und protokolliert.
(§3) Die in der Tabelle I enthaltenen Wirkungsangaben wurden nach der Bonitierungs-Skala des European Weed Research Council (EWRC) bestimmt, wobei hier sowohl für Unkräuter wie auch für Kulturpflanze der Wert 1 der völligen Abtötung und der Wert 9 der völligen Wirkungslosigkeit zugeordnet wurde: […]

Raps = experiment: Greenhouse pot test, spray directly after sowing, crop tolerance (Tabelle I); format: in vivo
Source text: as §1, §2, §3

Ratte = conditions: cited from earlier work

CCN(CC)C(=O)SCc1ccccc1Cl [Aktivstoff I, S-(2-Chlorbenzyl)-N,N-diethyl-thiocarbamat]
LD 50 p.o. (Maus): ~1850 mg/kg | Wirkung auf Chenopodium album ([1]; 4000 g/ha Aktivstoff I alone): 87% | Durchschnittswert (EWRC) gegenüber den 7 Unkraut-Arten ([2]; 4000 g/ha Aktivstoff I alone): 3,5 | Schädigung Raps (Raps; 2000 g/ha Aktivstoff I alone): deutlich geschädigt

Cc1cccc(C)c1N(Cn1cccn1)C(=O)CCl [Aktivstoff II, N-(2,6-Dimethylphenyl)-N-(1-pyrazolylmethyl)-chloracetamid]
Wirkung auf Chenopodium album ([1]; 1000 g/ha Aktivstoff II alone): 91% | LD 50 p.o. (Ratte): 2150 mg/kg | Durchschnittswert (EWRC) gegenüber den 7 Unkraut-Arten ([2]; 1000 g/ha Aktivstoff II alone): 5,5 | Schädigung Raps (Raps; 500 g/ha Aktivstoff II alone): deutlich geschädigt

— patent publication EP0229966A1, “Process for the control of weeds in useful plant cultures and means for performing the process” (SIEGFRIED AKTIENGESELLSCHAFT, priority 1985, dated 1987)
